This passage reports Activity results from ChEMBL document CHEMBL1155666, “Zygosporin D and two new cytochalasins produced by the fungus Metarrhizium anisopliae” (2000).

Test [1] concerns Oryza sativa. As to the kind of experiment: Growth retardation of rice seedlings assessed as second leaf sheath length at 1 nmol after 72 hrs exposure to continuous fluorescent light relative to control. It is filed as functional.
Test [2] relates to Oryza sativa. Kind of test: Growth retardation of rice seedlings assessed as reduction in second leaf sheath length at 1 nmol after 72 hrs exposure to continuous fluorescent light relative to water. It is filed as functional. Also on record: scale not given: the % may be the effect or the level left.

Turning to `CC1=C(C)[C@H]2[C@H](Cc3ccccc3)NC(=O)[C@]23[C@H](O)/C=C/[C@@](C)(O)C(=O)[C@@H](C)C/C=C/[C@H]3[C@@H]1O` [DEACETYLCYTOCHALASIN C], the Activity in the test with Oryza sativa [1] is recorded as 83%.
For the compound `C=C1[C@@H](C)[C@H]2[C@H](Cc3ccccc3)NC(=O)[C@]23[C@H](O)/C=C/[C@@](C)(O)C(=O)[C@@H](C)C/C=C/[C@H]3[C@@H]1O` [ZYGOSPORIN D], the Activity in the test on Oryza sativa [2] came to 41%.
On to `C[C@H]1[C@H]2[C@H](Cc3ccccc3)NC(=O)[C@]23[C@H](O)/C=C/[C@@](C)(O)C(=O)[C@@H](C)C/C=C/[C@H]3C(=O)[C@@H]1C`, for which the Activity in the test with Oryza sativa [1] is given as 94%.
